# Read-outs that look alike come from different tables or passages of the source.
# Columns and labels:
# GABAAR [1] = experiment: whole-mount retina, GABAAR-mediated evoked IPSC in retinal ganglion cells; format: cell-based, mouse; details: 300 nM, 15 min
# Experimental: (FIG. 6A) Viral strategy (top panel). […] Experimental overview (second panel from the top to bottom panel). Top: whole retina; synaptic current is evoked (stim) and recorded (voltage-clamp of dTomato+ RGC), with ionic and pharmaceutical conditions chosen to isolate the AMPAR or GABAAR. A 10 min baseline is followed by 15 min application of 300 nM Rx^DART.2+30 nM Alexa^647.1DART.2. […] (FIG. 6B) CMPDA.2^DART.2 (left). Electropositive spacer (PDB 3RNN). […] AMPAR structural model (middle) (composite of PDB 5WEO, 3RNN, and 1FTL). Cylinder depicts cell membrane. […] YM90K.1^DART.2 (right). Structural model (PDB 1FTL). […] (FIG. 6C) diazepam.1^DART.2 (left). Structural model (PDB 6HUP). […] GABAAR (middle) structural model (composite of PDB 6HUP and 6HUK). […] Structural model (PDB 6HUK).
# Preparation of Retina: Mice were intravitreal injected AAV10 HaloTag™-dTomato to eyes. After 8-12 weeks, the mice killed by cervical dislocation. Both eyes were removed and dissected under a stereo-microscope. Retinas were isolated from the eyecups and placed in oxygenated (95% O2/5% CO2) cold-Ames medium (Sigma-Aldrich), supplemented with 21 mM NaHCO3. After the vitreous body was removed, a retina was cut into 3 pieces, leaving each retina piece attached to a filter paper with 2 mm hole by retina ganglion-cell-side-down. The pieces of retina were stored in bubbled Ames solution at room temperature, then transferred to recording chamber with retina ganglion-cell-side-up for recording.
# Whole-cell patch-clamp recording: The brain slices or retinas were perfused with bubbled aCSF at 29-30° C. with a 2 ml/min flow rate. Recordings were made by whole cell patch recording techniques using a Multiclamp 700B amplifier (Molecular Devices, Axon Instruments Inc., Union City, CA). The signals were filtered at 10 KHz and acquired using Digitate 1440A and pClamp 10.7 (Molecular Devices). The recording pipettes (4 MΩ-6 MΩ) were filled with internal solutions. For GABAA receptor-mediated evoked inhibitory postsynaptic currents ([…]) recording, the pipettes filled with Cesium Chloride-based internal solution (in mM) 135 CsCl, 2 MgCl2, 0.5 EGTA, 10 HEPES, 4 Mg-ATP, 0.5 Na-GTP, 10 Na2-phosphocreatine, and QX314 (lidocaine N-ethyl bromide), pH adjusted to 7.3 with CsOH (290 mosm). For AMPA-receptor mediated evoked excitatory postsynaptic currents (eEPSCs) recording, the pipette solution contained (in mM) 130 CsMeS, 1 MgCl2, 0.5 EGTA, 10 HEPES, 4 Mg-ATP, 0.5 Na-GTP, 10 Na2-phosphocreatine, and 4 QX314, pH adjusted to 7.3 with CsOH (290 mosm). For experiment of brain slices and retinas, the eIPSCs or eEPSCs were elicited by electrical stimuli at 0.067 Hz in 0.3-ms duration and 150-300-ρA (60-70% maximum responses) stimulation intensity at a holding potential of −70 mV. The stimulating electrode was placed within 60-100 μm from the recording neuron under voltage-clamp mode. GABA-receptor mediated eIPSCs were isolated in the presence of DNQX ([…] AMPAR antagonist) and AP-V ([…] antagonist) in the bath solution. For AMPA-receptor mediated eEPSCs, added picrotoxin ([…], GABAAR antagonist) and AP-V ([…]) to the bath solution.
# cerebellar granule cells = experiment: in vivo two-photon GCaMP imaging of cerebellar granule cells; parameters: species or system mouse; details: local infusion, 1 μL of 1 μM
# Text: (§1) (FIG. 4A) Validation of gabazine.1^DART.2 in cerebellar slice. Top: voltage-clamp schematic. Bottom: tonic GABAAR in granule cells expressing ^+HTP or ^ddHTP. […] Data are mean±SEM, cells normalized to baseline. (FIG. 4B) In vivo delivery of gabazine.1^DART.2 to cerebellar granule cells. Top right: schematic of experimental approach, GCaMP6f granule-cell activity obtained in the absence of sensory stimuli. Top left: example field of view, GCaMP6f signal averaged across trials. Bottom: example calcium traces (ΔF/F) in an awake ^+HTP mouse before (baseline) and after (1 μL of 1 μM gabazine.1^DART.2) infusion. (FIG. 4C) In vivo, 1 μL of 1 μM gabazine.1^DART.2 to ^+HTP mice. Color indicates ΔF/F, each row is one cell before (left) and after (right) gabazine.1^DART.2 infusion. […] (FIG. 4D) In vivo, 1 μL of 1 μM gabazine.1^DART.2 to ^ddHTP mice. Format as in panel C. […] (FIG. 4E) Validation of gabazine.7^DART.2 in VTA slice. Top: evoked-IPSC configuration. […] Data are mean±SEM, cells normalized to baseline. […] Data are mean±SEM, normalized to baseline speed of each animal.
# Next, the feasibility of using DART.2 for GABAAR antagonism in live mice was explored. […] Whether this sparsity results from low excitatory drive, or high inhibitory GABAAR tone, has been difficult to address with prior tools. […]
# GABAAR [2] = experiment: cerebellar slice voltage-clamp, tonic GABAAR current in granule cells; format: cell-based, mouse
# Text: as §1
# Next, the feasibility of using DART.2 for GABAAR antagonism in live mice was explored. […] Whether this sparsity results from low excitatory drive, or high inhibitory GABAAR tone, has been difficult to address with prior tools. For example, one may attempt to reduce inhibition onto granule cells by silencing local GABA-producing neurons [golgi cells]. However, this would disinhibit local excitatory neurons [unipolar brush cells]. Thus the approach would inadvertently elevate excitatory drive onto granule cells, concomitant with the desired goal of reducing their inhibition, confounding interpretation. […] AAV DIO ^+HTPGPI or AAV DIO ^ddHTPGPI were expressed along with GCaMPxx in xxx-Cre mice; 2p. […] Next, in vivo experiments, using two-photon imaging of granule cells were performed.
# endogenous GABAARs = experiment: all-optical assay of GABAAR antagonism in primary neuronal culture; format: cell-based, rat
# Experimental: (§2) Cultured neuronal assays: Preparation of hippocampal cultures: Mixed glial and neuronal cultures were prepared from the hippocampus of postnatal day 0 to 1 Sprague-Dawley rat pups. Separate pools of dissociated cells were transfected via electroporation (LONZA, V4SP-3096) with plasmid constructs, and depending on assay directives, either plated individually or mixed with a different pool of electroporated cells after a 10 min recovery period. Cells were cultured on coverslips (Deckglaser) pre-treated with high molecular weight poly-D-lysine (Sigma, P7405; 0.05 mg/mL) in 24-well plates and maintained in NbActiv4 (BrainBits, Nb4-500) at 37 C, 5% CO2. Media was changed by half at DIV3 or 4 and then weekly thereafter; experiments were performed between DIV16 to DIV18.
# Gabazine: Dissociated neurons were electroporated with constructs and cultured for 2 weeks. The assay was performed in the same BASE solution as described above, but with the addition of synaptic blockers CPP (NMDAR antagonist; Tocris) and NBQX (AMPAR antagonist; Abcam, ab120046) to isolate GABAR activity, and a small amount of GABA (GABAR agonist; Sigma) to ensure GABAR activity (=GABAR-BASE). […] Instead, a high dose of regular gabazine was used to completely silence any cells that may not have had realized full antagonism by the end of the assay. Imaging alignment, proof-reading and analysis were performed in a similar fashion to the AMPAR assay using MatLab.
# It was next focused on blocking the GABAAR, a ubiquitous transducer of synaptic inhibition. […] The structure-activity literature of gabazine, a selective GABAAR antagonist, was explored. The core gabazine pharmacophore includes of a 3-amino, 6-phenoxy-pyridazine ring, with GABA embedded in the 2-position (2 butyric acid). Based on historical, low-potency predecessors of gabazine, a longer GABA moiety (2 pentanoic acid), and methyl substituents (e.g., 5-CH3) were explored (FIG. 2F). For each variant, the 6-phenoxy moiety was modified to make a gabazinealkyne module, which was click-conjugated to DART.2. Several variants were made, including gabazine.1^DART.2 (2 butyric acid, 5-H), gabazine.5DART.2 (2 pentanoic acid, 5-H), and gabazine.7DART.2 (2 pentanoic acid, 5-CH3). An all-optical assay of endogenous GABAARs in primary neuronal culture was then developed. […] Excitatory synapses were blocked, such that opto-stimulation with ChR2 became the only source of neural excitation.
# endogenous GABAAR = experiment: all-optical assay of GABAAR positive allosteric modulation in primary neuronal culture; format: cell-based, rat
# Experimental: as §2
# Diazepam/Flumazenil: Dissociated neurons were electroporated with constructs and cultured for 2 weeks. The assay was performed in a modified GABAR-BASE, with an increased KCl concentration to enhance neuronal excitability and a lowered GABA level for a baseline. Again, a DRUG plate and three DoseGroups were used as described above for dosing, but no final WASH. […] Imaging alignment, proof-reading and analysis were performed in a similar fashion to the GABAR assay using MatLab.
# Next it was sought to extend DART to allosteric modulators. The allosteric binding site of the GABAAR, known to bind several drugs, with effects ranging from negative to positive allosteric modulation was first analyzed. Diazepam represents the prototypic PAM at this site, and is the most clinically significant of the class. Thus, a diazepam analog was synthesized with a short alkyne attached to the amide of the diazepam core; an attachment site known to tolerate substituents and thought from structural inspection of the GABAAR-bound diazepam pose to allow linker access to free solution. Click chemistry was used to assemble the full-length diazepam.1DART.2 and leveraged an all-optical assay of endogenous GABAARs in primary neuronal culture, with ChR2 and GCaMP6s in the same cell.
# endogenous AMPARs = experiment: all-optical cultured-neuron assay of AMPAR-dependent synaptic transmission; format: cell-based, rat; details: DW=Rx50/HTL50; ddHTP vs +HTP cells, 15 min
# Experimental: as §2
smiles,measurement,setting,value
COc1cc(CCCCl)ccc1CCOCCNC(=O)c1ccc(CNC(=O)CCOCCOCCOCCOCCOCCOCCOCCOCCOCCOCCOCCOCCOCCOCCOCCOCCOCCOCCOCCOCCOCCOCCOCCOCCOCCOCCOCCOCCOCCOCCOCCOCCOCCOCCOCCOCCn2cc(COCCOCCOCCOCCOCCOCCOCCCCCCOc3ccc(-c4ccc(=N)n(CCCC(=O)O)n4)cc3)nn2)cc1 [gabazine.1DART.2],"GABAAR evoked IPSC block, +HTP cells",GABAAR [1],blocked the GABAAR-mediated IPSC
same,"GABAAR evoked IPSC, ddHTP cells",GABAAR [1],not on ^ddHTP cells
same,"GABAAR evoked IPSC block, +HTP cells",GABAAR [1]; listed as gabazine.1^DART.2,blocked on ^+HTP cells
same,"GCaMP signals, ddHTP mice",cerebellar granule cells,no impact on GCaMP signals
same,"granule cell activity, +HTP mice",cerebellar granule cells,pronounced increase in +HTP granule cell activity
same,"tonic GABAAR current, +HTP granule cells",GABAAR [2]; 100 nM,antagonizes the GABAAR in ^+HTP
same,HTL50 (half-maximal tethering concentration at 15 min),"GABAAR [2]; +HTP cells, tonic GABAAR current, read-out: HTL50 (t=15 m)",~50 nM
same,IC50,"GABAAR [2]; read-out: Rx50, ddHTP cells, tonic GABAAR current",~1000 nM
same,DW (t=15 m),"endogenous GABAARs; ddHTP vs +HTP cells, 15 min, 15 uM GABA",500
"COc1cc(CCCCl)ccc1CCOCCNC(=O)c1ccc(CNC(=O)CCOCCOCCOCCOCCOCCOCCOCCOCCOCCOCCOCCOCCOCCOCCOCCOCCOCCOCCOCCOCCOCCOCCOCCOCCOCCOCCOCCOCCOCCOCCOCCOCCOCCOCCOCCOCCn2cc(COCCOCCOCCOCCOCCOCCN3C(=O)CN=C(c4ccccc4)c4cc(Cl)ccc43)nn2)cc1 [diazepam.1DART.2, 1-(4-(19-(7-chloro-2-oxo-5-phenyl-2,3-dihydro-1H-benzo[e][1,4]diazepin-1-yl)-2,5,8, 11, 14, 17-hexaoxanonadecyl)-1H-1,2,3-triazol-1-yl)-N-(4-((2-(4-(3-chloropropyl)-2-methoxyphenethoxy)ethyl)carbamoyl)benzyl)-3,6,9,12, 15, 18,21,24,27, 30, 33, 36, 39, 42, 45, 48, 51, 54, 57, 60, 63, 66, 69, 72, 75, 78, 81, 84, 87, 90, 93, 96, 99, 102, 105, 108-hexatriacontaoxaundecahectan-111-amide]","GABAAR evoked IPSC integral (total charge transfer) boost, +HTP cells",GABAAR [1],2 fold
same,"GABAAR evoked IPSC, ddHTP cells",GABAAR [1],no effect on ddHTP RGCs
same,"GABAAR-mediated IPSC potentiation, +HTP RGCs",GABAAR [1],significantly potentiated IPSCs
same,"GABAAR evoked IPSC, ddHTP cells",GABAAR [1]; listed as diazepam.1^DART.2,not ^ddHTP cells
same,DW (t=15 m),endogenous GABAAR; Rx50/HTL50,~750
same,EC50,"endogenous GABAAR; read-out: HTL50 (t=15 m), +HTP neurons, 15 min",40 nM
same,EC50,"endogenous GABAAR; read-out: Rx50, ddHTP neurons, 5 µM GABA",30000 nM
"COc1ccc(-c2ccc(=N)n(CCCC(=O)O)n2)cc1 [gabazine, reference compound]",GABAAR current after subsequent application,GABAAR [2]; traditional gabazine,blocks all GABAAR current
same,effect on +HTP vs ddHTP cells,endogenous GABAARs; traditional (non-DART) version,equally affected
"O=C(CCCn1c(=O)c(=O)[nH]c2cc([N+](=O)[O-])c(-n3ccnc3)cc21)NCCOCCOCCOCCOCCOCCOCc1cn(CCOCCOCCOCCOCCOCCOCCOCCOCCOCCOCCOCCOCCOCCOCCOCCOCCOCCOCCOCCOCCOCCOCCOCCOCCOCCOCCOCCOCCOCCOCCOCCOCCOCCOCCOCCOCCC(=O)NCCOCCOCCCCCCCl)nn1 [YM90K.1DART.1, 1-(4-(24-(7-(1H-imidazol-1-yl)-6-nitro-2,3-dioxo-3,4-dihydroquinoxalin-1 (2H)-yl)-21-oxo-2,5,8, 11, 14, 17-hexaoxa-20-azatetracosyl)-1H-1,2,3-triazol-1-yl)-N-(2-(2-((6-chlorohexyl)oxy)ethoxy)ethyl)-3,6,9, 12, 15, 18, 21, 24, 27, 30, 33, 36, 39, 42, 45, 48, 51, 54, 57, 60, 63, 66, 69, 72, 75, 78, 81, 84, 87, 90, 93, 96, 99, 102, 105, 108-hexatriacontaoxaundecahectan-111-amide]",DW (t=15 m),endogenous AMPARs,30

# — patent publication US20250213700A1, “COMPOUNDS, COMPOSITIONS, AND METHODS FOR CELL-SPECIFIC PHARMACOLOGY” (Duke University, priority 2022, published 2025)
